According to US10736932B2, “Small molecule Ras inhibitors” (Ohio State Innovation Foundation, priority 2014, dated 2020):
“Also recorded” adds a separate entry of the source. Square brackets hold non-standard residues; d marks the D form. Peptide text beside a SMILES is read from it. Phe(4-F) = N[C@@H](Cc1ccc(F)cc1)C(=O)O; d2Nal = N[C@H](Cc1ccc2ccccc2c1)C(=O)O; dNle = CCCC[C@@H](N)C(=O)O

What was measured:
[1] = tested on: phosphorylation of Akt, Mek and Erk in H1299 cells; assay: Western blot of Ras signaling (Akt, Mek, Erk phosphorylation) in H1299 cells; assay type: cell-based
From the text: (§1) Two well characterized Ras effector pathways are the Raf-Mek-Erk and PI3K-Akt signaling pathways (Karnoub, A. E. et al. (2008) Nat Rev. Mol. Cell Biol. 9:517). To determine whether the cyclic peptides inhibited the intracellular Ras activity, Applicants monitored the phosphorylation levels of Mek, Erk, and Akt in cells before and after treatment with the Ras inhibitors. […] In order to rule out that the observed downregulation of P-Mek, P-Erk and P-Akt is caused by inhibition of EGFR signaling, the effect of Cyclosrasin 9A5 on the phosphorylation of the EGFR was tested by performing an IP/Western Blot experiment (FIG. 3E). Active, signaling EGFR is highly autohophosphorylated.
(§2) In the MTT assay, A549 cells were also found to be more resistant to the Ras inhibitors than other cell lines.

[2] = molecular target: T1, K-Ras / Raf RBD interaction (Homo sapiens, UniProt P01116, G12V); assay: HTRF assay, inhibition of Ras-Raf RBD interaction; assay type: binding;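 further: HTRF signal read after overnight incubation of the assay plate at 4 °C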
T1 construct: The G12V mutant K-Ras (amino acids 1-185) was recombinantly fused; GST (N, cleaved yes); made in house; host or cells: Escherichia coli BL21
T1 sequence (P01116 1-185 isoform P01116-2 G12V): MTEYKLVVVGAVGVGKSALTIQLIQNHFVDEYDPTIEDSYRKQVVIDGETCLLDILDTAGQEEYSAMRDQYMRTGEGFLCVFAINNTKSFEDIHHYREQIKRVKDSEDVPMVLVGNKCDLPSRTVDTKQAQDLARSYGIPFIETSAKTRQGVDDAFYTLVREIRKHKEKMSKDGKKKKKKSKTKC
Procedure: Recombinant HA-tagged K-Ras (no GST, 50 nM), GST-Raf RBD (50 nM each), a monoclonal anti-HA antibody labeled with acceptor d2 (2 μg/mL), a monoclonal anti-GST antibody labeled with donor Tb (0.25 μg/mL) (Cisbio), and increasing concentrations of cyclic peptide (0-20 μM) were mixed inPBS (total volume of 20 μL) in a 384-well plate. The plate was incubated overnight at 4° C. and the HTRF signal was measured on a Molecular Devices Spectramax M5 or a Tecan infinite M1000 Pro plate reader. The data were analyzed by Prism 6.0 from Graphpad Software, Inc. (La Jolla, Calif.) and IC50 values were obtained by fitting the data to dose-response-inhibition curve.

[3] = tested on: phosphorylation of Akt, Mek and Erk in A549 cells; assay: Western blot of Ras signaling in A549 cells; assay type: cell-based; conditions: 10 μM, 10 min
[4] = tested on: phosphorylation of Akt, Mek and Erk in H1650 cells; assay: Western blot of Ras signaling in H1650 cells; assay type: cell-based; conditions: 10 μM, 10 min
From the text: as §2
(§3) In H1975 the EGFR is also mutated. Certain mutated EGFR cannot be inhibited with Tarceva® due to the resistance conferring T790M mutation which precludes binding of the drug.

[5] = tested on: actin filaments in A549 cells; assay: Actin filament staining (phalloidin-FITC) by confocal microscopy; assay type: cell-based; conditions: 10 μM, 15 min
From the text: The inhibition of Ras affects proliferation and survival of cells. […] These morphological changes are consistent with a collapse of the actin cytoskeleton. The dephosphorylation of cofilin activates the actin filament severing activity of this protein. The severing of actin filaments results in the collapse of the actin cytoskeleton. […] Without actin filaments, cells tend to round up and lose attachment to the substrate.

[6] = tested on: phosphorylation of Akt, Mek and Erk in H1975 cells; assay: Western blot of Ras signaling in H1975 cells; assay type: cell-based; conditions: 10 μM, 10 min
From the text: as §2, §3

A549 cells = assay: Cellular uptake of FITC-labeled peptides (live-cell confocal microscopy, FACS); conditions: Gln8 replaced with L- or D-arginine
EGFR phosphorylation = assay: IP/Western blot of EGFR phosphorylation; assay type: cell-based; conditions: 13 μM
From the text: as §1

## CCCC[C@H]1NC(=O)[C@H](Cc2ccc(F)cc2)NC(=O)[C@H](CCCNC(=N)N)NC(=O)[C@@H](Cc2ccc3ccccc3c2)NC(=O)[C@H](CCCNC(=N)N)NC(=O)[C@H](CCCNC(=N)N)NC(=O)[C@H](CCCNC(=N)N)NC(=O)[C@@H](C)NC(=O)[C@H]([C@@H](C)O)NC(=O)[C@H](Cc2c[nH]c3ccccc23)NC(=O)[C@H](CCC(N)=O)NC1=O [Cyclorasin 9A5, (Trp-Thr-ala-Arg-Arg-Arg-nal-Arg-Fpa-nle-Gln)] (cyclo(WT[dA]RRR[d2Nal]R[Phe(4-F)][dNle]Q))
[1]; H1299 cells unstimulated with EGF, 10 μM for 10 min
  basal phosphorylation of Mek and Akt: inhibited
[1]; H1299 cells, 10 μM, 10 min
  Mek, Erk and Akt phosphorylation: almost completely abolished
[1]; H1299 cells, 13 μM, 5 min
  EGF-induced phosphorylation of Akt and Mek: significant reduction
[1]; H1299 cells, 13 μM, time course
  phosphorylation level of Erk: decreased, but to a lesser extent
[1]; H1299 cells, 13 μM, ≥10 min
  EGF-induced phosphorylation of Akt and Mek: completely abolished
[2]
  IC50: 120 nM
[3]
  Mek, Erk and Akt phosphorylation: significant Mek and Erk phosphorylation remained
[4]
  Mek, Erk and Akt phosphorylation: almost completely abolished; also recorded: can be inhibited
[5]
  actin filaments in treated cells: absent
[6]
  Mek, Erk and Akt phosphorylation: almost completely abolished; also recorded: can be inhibited
A549 cells
  cell permeability relative to earlier peptides: improved cell permeability
EGFR phosphorylation
  EGFR phosphorylation level: does no affect; also recorded: no effect
